Assay results published in PMC9869559, “The Weimberg pathway: an alternative for Myceliophthora thermophila to utilize D-xylose” (Biotechnology for Biofuels and Bioproducts, 2023).

What was measured:
[1] = target: T1, Mtxyd1 (native D-xylose dehydrogenase, XDH) (Thermothelomyces thermophilus, UniProt G2QN15); assay: NADP+ reduction at […] nm, crude mycelial extract of overexpressing strain; type: biochemical; details: 100 mM D-xylose, 2 mM NADP+, 2 mM MgCl2, 100 mM Tris-HCl pH 8.0, 30 °C
T1 construct: gene MYCTH_112471; full-length native gene from cDNA, inserted at pck locus of M. thermophila JG207 delta-Mtxyl1 (DF1310); crude mycelial extract
T1 sequence (G2QN15 1-395): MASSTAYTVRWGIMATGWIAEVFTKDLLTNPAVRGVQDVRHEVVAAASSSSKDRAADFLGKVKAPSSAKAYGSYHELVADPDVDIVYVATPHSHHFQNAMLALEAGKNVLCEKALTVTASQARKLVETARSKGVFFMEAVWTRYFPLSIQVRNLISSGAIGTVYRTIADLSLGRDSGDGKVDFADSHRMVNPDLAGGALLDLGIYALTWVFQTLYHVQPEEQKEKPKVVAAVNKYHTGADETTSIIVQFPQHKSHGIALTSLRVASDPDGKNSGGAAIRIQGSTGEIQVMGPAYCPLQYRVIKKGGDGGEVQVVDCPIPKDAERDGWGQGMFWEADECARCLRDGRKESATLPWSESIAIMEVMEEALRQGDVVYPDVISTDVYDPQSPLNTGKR

[2] = target: T2, Trxyd1 (D-xylose dehydrogenase, XDH) (Trichoderma reesei, UniProt G0R8G7); assay: NAD+ or NADP+ reduction at […] nm, crude mycelial extract of overexpressing strain; type: biochemical; details: 100 mM D-xylose, 2 mM NAD+ or NADP+, 2 mM MgCl2, 100 mM Tris-HCl pH 8.0, 30 °C
T2 construct: gene TRIREDRAFT_53673; full-length gene from cDNA, inserted at pck locus of M. thermophila JG207 delta-Mtxyl1 (DF1309); crude mycelial extract
T2 sequence (G0R8G7 1-391): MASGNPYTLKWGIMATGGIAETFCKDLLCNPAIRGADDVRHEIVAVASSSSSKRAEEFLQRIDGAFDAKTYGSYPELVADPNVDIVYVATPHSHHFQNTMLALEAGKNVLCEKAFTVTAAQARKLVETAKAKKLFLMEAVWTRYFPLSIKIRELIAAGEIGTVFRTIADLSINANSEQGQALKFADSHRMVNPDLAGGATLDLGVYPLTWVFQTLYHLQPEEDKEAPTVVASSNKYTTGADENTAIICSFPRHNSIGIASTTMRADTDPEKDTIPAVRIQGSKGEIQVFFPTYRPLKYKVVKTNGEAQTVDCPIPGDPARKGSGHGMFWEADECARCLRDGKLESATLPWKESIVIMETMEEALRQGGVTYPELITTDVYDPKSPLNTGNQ

| Structure (SMILES) | specific activity [1] | specific activity [2] |
| --- | --- | --- |
| OC1OC[C@@H](O)[C@H](O)[C@H]1O (stereo partly drawn) [D-xylose] | XDH encoded by endogenous Mtxyd1 owned the highest activity | The enzymatic activity of XDH in strains DF1309 and DF1310 was verified |
| NC(=O)c1ccc[n+]([C@@H]2O[C@H](COP(=O)(O)OP(=O)(O)OC[C@H]3O[C@@H](n4cnc5c(N)ncnc54)[C@H](OP(=O)(O)O)[C@@H]3O)[C@@H](O)[C@H]2O)c1 [NADP^+] | When using NADP^+ as a cofactor, XDH encoded by endogenous Mtxyd1 owned the highest activity | – |
